Test results from ChEMBL document CHEMBL3046822, “Synthesis, antiplatelet aggregation activity, and molecular modeling study of novel substituted-piperazine analogues” (2011).
Activity calls are given as the source filed them. The rule behind the calls is not given here.

Experiments:
Platelet [1] = test: (§1) Antiaggregating activity in Homo sapiens (human) platelet rich plasma assessed as inhibition of arachidonic acid-induced platelet aggregation at 0.5 uM incubated for 4 min prior to arachidonic acid-induction measured for 5.5 min by turbidometric analysis; format: functional
Platelet [2] = test: Antiaggregating activity in Homo sapiens (human) platelet rich plasma assessed as inhibition of arachidonic acid-induced platelet aggregation at 1 uM incubated for 4 min prior to arachidonic acid-induction measured for 5.5 min by turbidometric analysis; format: functional, cell-free
Platelet [3] = test: Antiaggregating activity in Homo sapiens (human) platelet rich plasma assessed as inhibition of adrenaline-induced platelet aggregation at 0.5 uM incubated for 4 min prior to adrenaline-induction measured for 5.5 min by turbidometric analysis; format: functional, cell-free
Platelet [4] = test: Antiaggregating activity in Homo sapiens (human) platelet rich plasma assessed as inhibition of adrenaline-induced platelet aggregation at 1 uM incubated for 4 min prior to adrenaline-induction measured for 5.5 min by turbidometric analysis; format: functional, cell-free
Platelet [5] = test: Antiaggregating activity in Homo sapiens (human) platelet rich plasma assessed as inhibition of adrenaline-induced platelet aggregation at 0.03 uM incubated for 4 min prior to adrenaline-induction measured for 5.5 min by turbidometric analysis; format: functional, cell-free
Platelet [6] = test: Antiaggregating activity in Homo sapiens (human) platelet rich plasma assessed as inhibition of adrenaline-induced platelet aggregation at 0.06 uM incubated for 4 min prior to adrenaline-induction measured for 5.5 min by turbidometric analysis; format: functional, cell-free
Platelet [7] = test: Antiaggregating activity in Homo sapiens (human) platelet rich plasma assessed as inhibition of adrenaline-induced platelet aggregation at 0.125 uM incubated for 4 min prior to adrenaline-induction measured for 5.5 min by turbidometric analysis; format: functional, cell-free
Platelet [8] = test: Antiaggregating activity in Homo sapiens (human) platelet rich plasma assessed as inhibition of collagen-induced platelet aggregation at 0.06 uM incubated for 4 min prior to collagen-induction measured for 5.5 min by turbidometric analysis; format: functional, cell-free
[9] = Antiaggregating activity in Homo sapiens (human) platelet rich plasma assessed as ADP-induced platelet aggregation at 0.03 uM incubated for 4 min prior to ADP-induction measured for 5.5 min by turbidometric analysis (reference value: 54 to 88%); format: functional
[10] = Antiaggregating activity in Homo sapiens (human) platelet rich plasma assessed as disaggregation of ADP-induced platelet aggregation at 0.06 uM incubated for 4 min prior to ADP-induction measured for 5.5 min by turbidometric analysis relative to control; format: functional
Platelet [11] = test: Antiaggregating activity in Homo sapiens (human) platelet rich plasma assessed as inhibition of ADP-induced platelet aggregation at 0.125 uM incubated for 4 min prior to ADP-induction measured for 5.5 min by turbidometric analysis; format: functional, cell-free
[12] = Antiaggregating activity in Homo sapiens (human) platelet rich plasma assessed as ristocetin-induced platelet aggregation at 1 uM incubated for 4 min prior to ristocetin-induction measured for 5.5 min by turbidometric analysis (reference value: 65 to 99%); format: functional
[13] = Antiaggregating activity in Homo sapiens (human) platelet rich plasma assessed as ristocetin-induced platelet aggregation at 0.5 uM incubated for 4 min prior to ristocetin-induction measured for 5.5 min by turbidometric analysis (reference value: 65 to 99%); format: functional
Platelet [14] = test: Antiaggregating activity in Homo sapiens (human) platelet rich plasma assessed as inhibition of ADP-induced platelet aggregation at 0.5 uM incubated for 4 min prior to ADP-induction measured for 5.5 min by turbidometric analysis; format: functional, cell-free
Platelet [15] = test: Antiaggregating activity in Homo sapiens (human) platelet rich plasma assessed as inhibition of ADP-induced platelet aggregation at 1 uM incubated for 4 min prior to ADP-induction measured for 5.5 min by turbidometric analysis; format: functional, cell-free
Platelet [16] = test: Antiaggregating activity in Homo sapiens (human) platelet rich plasma assessed as inhibition of collagen-induced platelet aggregation at 0.125 uM incubated for 4 min prior to collagen-induction measured for 5.5 min by turbidometric analysis; format: functional, cell-free
Platelet [17] = test: Antiaggregating activity in Homo sapiens (human) platelet rich plasma assessed as inhibition of collagen-induced platelet aggregation at 0.5 uM incubated for 4 min prior to collagen-induction measured for 5.5 min by turbidometric analysis; format: functional, cell-free
Platelet [18] = test: Antiaggregating activity in Homo sapiens (human) platelet rich plasma assessed as inhibition of collagen-induced platelet aggregation at 1 uM incubated for 4 min prior to collagen-induction measured for 5.5 min by turbidometric analysis; format: functional, cell-free
[19] = Antiaggregating activity in Homo sapiens (human) platelet rich plasma assessed as collagen-induced platelet aggregation at 0.03 uM incubated for 4 min prior to collagen-induction measured for 5.5 min by turbidometric analysis (reference value: 50 to 98%); format: functional
[20] = Antiaggregating activity in Homo sapiens (human) platelet rich plasma assessed as ristocetin-induced platelet aggregation at 0.03 uM incubated for 4 min prior to ristocetin-induction measured for 5.5 min by turbidometric analysis (reference value: 65 to 99%); format: functional
[21] = Antiaggregating activity in Homo sapiens (human) platelet rich plasma assessed as ristocetin-induced platelet aggregation at 0.06 uM incubated for 4 min prior to ristocetin-induction measured for 5.5 min by turbidometric analysis (reference value: 65 to 99%); format: functional
[22] = Antiaggregating activity in Homo sapiens (human) platelet rich plasma assessed as ristocetin-induced platelet aggregation at 0.125 uM incubated for 4 min prior to ristocetin-induction measured for 5.5 min by turbidometric analysis (reference value: 65 to 99%); format: functional
[23] = Antiaggregating activity in Homo sapiens (human) platelet rich plasma assessed as arachidonic acid-induced platelet aggregation at 0.03 uM incubated for 4 min prior to arachidonic acid-induction measured for 5.5 min by turbidometric analysis (reference value: 55 to 100%); format: functional
Platelet [24] = test: Antiaggregating activity in Homo sapiens (human) platelet rich plasma assessed as inhibition of arachidonic acid-induced platelet aggregation at 0.06 uM incubated for 4 min prior to arachidonic acid-induction measured for 5.5 min by turbidometric analysis; format: functional, cell-free
Platelet [25] = test: Antiaggregating activity in Homo sapiens (human) platelet rich plasma assessed as inhibition of arachidonic acid-induced platelet aggregation at 0.125 uM incubated for 4 min prior to arachidonic acid-induction measured for 5.5 min by turbidometric analysis; format: functional, cell-free
[26] = Antiaggregating activity in Homo sapiens (human) platelet rich plasma assessed as disaggregation of ADP-induced platelet aggregation at 0.25 uM incubated for 4 min prior to ADP-induction measured for 5.5 min by turbidometric analysis relative to control; format: functional
[27] = Antiaggregating activity in Homo sapiens (human) platelet rich plasma assessed as ADP-induced platelet aggregation at 0.1 uM incubated for 4 min prior to ADP-induction measured for 5.5 min by turbidometric analysis (reference value: 54 to 88%); format: functional
Platelet [28] = test: Antiaggregating activity in Homo sapiens (human) platelet rich plasma assessed as inhibition of adrenaline-induced platelet aggregation at 0.1 uM incubated for 4 min prior to adrenaline-induction measured for 5.5 min by turbidometric analysis; format: functional, cell-free
Platelet [29] = test: Antiaggregating activity in Homo sapiens (human) platelet rich plasma assessed as inhibition of adrenaline-induced platelet aggregation at 0.25 uM incubated for 4 min prior to adrenaline-induction measured for 5.5 min by turbidometric analysis; format: functional, cell-free
Platelet [30] = test: Antiaggregating activity in Homo sapiens (human) platelet rich plasma assessed as inhibition of collagen-induced platelet aggregation at 0.1 uM incubated for 4 min prior to collagen-induction measured for 5.5 min by turbidometric analysis; format: functional, cell-free
Platelet [31] = test: (§2) Antiaggregating activity in Homo sapiens (human) platelet rich plasma assessed as inhibition of collagen-induced platelet aggregation at 0.25 uM incubated for 4 min prior to collagen-induction measured for 5.5 min by turbidometric analysis; format: functional
[32] = Antiaggregating activity in Homo sapiens (human) platelet rich plasma assessed as disaggregation of ristocetin-induced platelet aggregation at 0.25 uM incubated for 4 min prior to ristocetin-induction measured for 5.5 min by turbidometric analysis relative to control; format: functional
[33] = Antiaggregating activity in Homo sapiens (human) platelet rich plasma assessed as ristocetin-induced platelet aggregation at 0.1 uM incubated for 4 min prior to ristocetin-induction measured for 5.5 min by turbidometric analysis (reference value: 65 to 99%); format: functional
[34] = Antiaggregating activity in Homo sapiens (human) platelet rich plasma assessed as arachidonic acid-induced platelet aggregation at 0.1 uM incubated for 4 min prior to arachidonic acid-induction measured for 5.5 min by turbidometric analysis (reference value: 55 to 100%); format: functional
Platelet [35] = test: Antiaggregating activity in Homo sapiens (human) platelet rich plasma assessed as inhibition of arachidonic acid-induced platelet aggregation at 0.25 uM incubated for 4 min prior to arachidonic acid-induction measured for 5.5 min by turbidometric analysis; format: functional, cell-free
Platelet [36] = test: Antiaggregating activity in Homo sapiens (human) platelet rich plasma assessed as inhibition of ADP-induced platelet aggregation at 0.25 uM incubated for 4 min prior to ADP-induction measured for 5.5 min by turbidometric analysis; format: functional, cell-free
Platelet [37] = test: Antiaggregating activity in Homo sapiens (human) platelet rich plasma assessed as inhibition of ristocetin-induced platelet aggregation at 1 uM incubated for 4 min prior to ristocetin-induction measured for 5.5 min by turbidometric analysis; format: functional, cell-free
[38] = Antiaggregating activity in Homo sapiens (human) platelet rich plasma assessed as ristocetin-induced platelet aggregation at 0.25 uM incubated for 4 min prior to ristocetin-induction measured for 5.5 min by turbidometric analysis (reference value: 65 to 99%); format: functional
[39] = as §1; format: functional; set-up: scale not given: the % may be the effect or the level left
Platelet [40] = test: Antiaggregating activity in Homo sapiens (human) platelet rich plasma assessed as inhibition of adrenaline-induced platelet aggregation at 2 uM incubated for 4 min prior to adrenaline-induction measured for 5.5 min by turbidometric analysis; format: functional, cell-free
[41] = Antiaggregating activity in Homo sapiens (human) platelet rich plasma assessed as ADP-induced platelet aggregation at 0.25 uM incubated for 4 min prior to ADP-induction measured for 5.5 min by turbidometric analysis (reference value: 54 to 88%); format: functional
[42] = Antiaggregating activity in Homo sapiens (human) platelet rich plasma assessed as disaggregation of ADP-induced platelet aggregation at 1 uM incubated for 4 min prior to ADP-induction measured for 5.5 min by turbidometric analysis relative to control; format: functional
Platelet [43] = test: Antiaggregating activity in Homo sapiens (human) platelet rich plasma assessed as inhibition of ADP-induced platelet aggregation at 2 uM incubated for 4 min prior to ADP-induction measured for 5.5 min by turbidometric analysis; format: functional, cell-free
[44] = as §2; format: functional; set-up: scale not given: the % may be the effect or the level left
Platelet [45] = test: Antiaggregating activity in Homo sapiens (human) platelet rich plasma assessed as inhibition of collagen-induced platelet aggregation at 2 uM incubated for 4 min prior to collagen-induction measured for 5.5 min by turbidometric analysis; format: functional, cell-free
[46] = Antiaggregating activity in Homo sapiens (human) platelet rich plasma assessed as adrenaline-induced platelet aggregation at 0.25 uM incubated for 4 min prior to adrenaline-induction measured for 5.5 min by turbidometric analysis (reference value: 65 to 100%); format: functional
Platelet [47] = test: Antiaggregating activity in Homo sapiens (human) platelet rich plasma assessed as inhibition of ristocetin-induced platelet aggregation at 2 uM incubated for 4 min prior to ristocetin-induction measured for 5.5 min by turbidometric analysis; format: functional, cell-free
Platelet [48] = test: Antiaggregating activity in Homo sapiens (human) platelet rich plasma assessed as inhibition of arachidonic acid-induced platelet aggregation at 2 uM incubated for 4 min prior to arachidonic acid-induction measured for 5.5 min by turbidometric analysis; format: functional, cell-free
Platelet [49] = test: Antiaggregating activity in Homo sapiens (human) platelet rich plasma assessed as inhibition of collagen-induced platelet aggregation at 0.03 uM incubated for 4 min prior to collagen-induction measured for 5.5 min by turbidometric analysis; format: functional, cell-free

Structure (SMILES) | inhibition (Platelet [1]) | inhibition (Platelet [2]) | inhibition (Platelet [3]) | inhibition (Platelet [4]) | inhibition (Platelet [5]) | inhibition (Platelet [6]) | inhibition (Platelet [7]) | inhibition (Platelet [8]) | Activity [9] | Activity [10] | inhibition (Platelet [11]) | Activity [12] | Activity [13] | inhibition (Platelet [14]) | inhibition (Platelet [15]) | inhibition (Platelet [16]) | inhibition (Platelet [17]) | inhibition (Platelet [18]) | Activity [20] | Activity [21] | further results
Br.O=C(C1CCCN(Cc2ccc(CN3CCCC(C(=O)N4CCN(c5ccccc5Cl)CC4)C3)cc2)C1)N1CCN(c2ccccc2Cl)CC1 (stereo not given) | Active | Active | Active | Active | Active | Active | Active | Active | 84% | 27% | Active | 30% | 35% | Active | Active | Active | Active | Active | 78% | 61% | Activity [19]: 76%; Activity [22]: 31%; Activity [23]: 58%; inhibition (Platelet [24]): Active; inhibition (Platelet [25]): Active
Cl.O=C(C1CCCN(Cc2ccccc2F)C1)N1CCN(c2ccccc2Cl)CC1 (stereo not given) | Active | Active | Active | Active | – | – | – | – | – | – | – | 50% | 73% | Active | Active | – | Active | Active | – | – | Activity [26]: 38%; Activity [27]: 74%; inhibition (Platelet [28]): Active; inhibition (Platelet [29]): Active; inhibition (Platelet [30]): Active; inhibition (Platelet [31]): Active; Activity [32]: 18%; Activity [33]: 50%; Activity [34]: 59%; inhibition (Platelet [35]): Active
COc1cc(C(=O)[n+]2cccc(C(=O)N3CCN(c4ccccc4Cl)CC3)c2)cc(OC)c1OC.[Cl-] | Active | Active | Active | Active | – | – | – | – | – | – | – | – | 20% | Active | Active | – | Active | Active | – | – | inhibition (Platelet [29]): Active; inhibition (Platelet [36]): Active; inhibition (Platelet [31]): Active; inhibition (Platelet [37]): Active; Activity [38]: 79%; inhibition (Platelet [35]): Active
O=C(c1ccc[n+](Cc2ccccc2)c1)N1CCN(C(=O)c2ccc[n+](Cc3ccccc3)c2)CC1.[Cl-].[Cl-] | – | Active | – | Active | – | – | – | – | – | – | – | 73% | – | – | – | – | – | Active | – | – | Activity [39]: 71%; inhibition (Platelet [40]): Active; Activity [41]: 28%; Activity [42]: 25%; inhibition (Platelet [43]): Active; Activity [44]: 79%; inhibition (Platelet [45]): Active; Activity [46]: 66%; inhibition (Platelet [47]): Active; Activity [38]: 80%; inhibition (Platelet [48]): Active
Br.O=C(C1CCCN(Cc2ccc(Br)cc2)C1)N1CCN(c2ccccc2Cl)CC1 (stereo not given) | – | Active | – | Active | Active | Active | Active | Active | 55% | 20% | Active | 39% | – | – | Active | Active | – | Active | 67% | 62% | inhibition (Platelet [49]): Active; Activity [22]: 53%; Activity [23]: 56%; inhibition (Platelet [24]): Active; inhibition (Platelet [25]): Active
